Source: paper PMC5218480 (PLoS ONE, 2017)

System: MV-4-11 cells
Test: Gene expression microarray analysis (Affymetrix PrimeView) and GSEA
Assay type: cell-based, human
Parameters: RFU PODN (11730768_x_at) / Fold change /veh PODN (11730768_x_at) / RFU LINC00158 (11744669_a_at) / Fold change /veh LINC00158 (11744669_a_at) / RFU DUSP10 (11751237_a_at) / Fold change /veh DUSP10 (11751237_a_at) / RFU ID3 (11757404_x_at) / Fold change /veh ID3 (11757404_x_at) / RFU PLEKHG5 (11737974_s_at) / Fold change /veh PLEKHG5 (11737974_s_at) / RFU LRRC4B (11730491_at) / Fold change /veh LRRC4B (11730491_at) / RFU GIMAP4 (11747438_a_at) / Fold change /veh GIMAP4 (11747438_a_at) / RFU KRT8 (11758183_x_at) / Fold change /veh KRT8 (11758183_x_at) / RFU CNN1 (11734310_a_at) / Fold change /veh CNN1 (11734310_a_at) / RFU VPS37D (11726825_at) / Fold change /veh VPS37D (11726825_at) / RFU C10orf10 (11716522_x_at) / Fold change /veh C10orf10 (11716522_x_at) / RFU KIR2DL2 /// KIR2DL4 /// KIR2DL5A /// KIR2DL5B /// KIR2DS1 /// KIR2DS2 /// KIR2DS3 /// KIR2DS4 /// KIR3DL3 /// KIR3DL3 /// KIR3DS1 (11738374_at) / Fold change /veh KIR2DL2 /// KIR2DL4 /// KIR2DL5A /// KIR2DL5B /// KIR2DS1 /// KIR2DS2 /// KIR2DS3 /// KIR2DS4 /// KIR3DL3 /// KIR3DL3 /// KIR3DS1 (11738374_at) / RFU C1QL1 (11718748_at) / Fold change /veh C1QL1 (11718748_at) / RFU TMPRSS4 (11747572_a_at) / Fold change /veh TMPRSS4 (11747572_a_at) / RFU HAMP (11756126_x_at) / Fold change /veh HAMP (11756126_x_at) / RFU RNFT2 (11725882_a_at) / Fold change /veh RNFT2 (11725882_a_at) / RFU NR4A2 (11747474_a_at) / Fold change /veh NR4A2 (11747474_a_at) / RFU ABCC12 (11746883_a_at) / Fold change /veh ABCC12 (11746883_a_at) / RFU TMEM136 (11760407_x_at) / Fold change /veh TMEM136 (11760407_x_at) / RFU CLDN22 /// WWC2 (11732394_at) / Fold change /veh CLDN22 /// WWC2 (11732394_at) / RFU HLA-DPB1 (11760878_x_at) / Fold change /veh HLA-DPB1 (11760878_x_at) / RFU SPINT1 (11716480_a_at) / Fold change /veh SPINT1 (11716480_a_at) / RFU GAP43 (11754022_s_at) / Fold change /veh GAP43 (11754022_s_at) / RFU A4GNT (11735810_at) / Fold change /veh A4GNT (11735810_at) / RFU PRB3 (11715151_x_at) / Fold change /veh PRB3 (11715151_x_at) / RFU TUBB4B (11761932_at) / Fold change /veh TUBB4B (11761932_at) / RFU CAPN14 (11732068_a_at) / Fold change /veh CAPN14 (11732068_a_at) / RFU TMCC2 (11721928_a_at) / Fold change /veh TMCC2 (11721928_a_at) / RFU IRGQ (11745062_a_at) / Fold change /veh IRGQ (11745062_a_at) / RFU FAM174B (11720279_a_at) / Fold change /veh FAM174B (11720279_a_at) / RFU TMPRSS4 (11748680_a_at) / Fold change /veh TMPRSS4 (11748680_a_at) / RFU FAM212B (11763350_a_at) / Fold change /veh FAM212B (11763350_a_at) / RFU PLEKHG5 (11743358_a_at) / Fold change /veh PLEKHG5 (11743358_a_at) / RFU ZSCAN30 (11745921_a_at) / Fold change /veh ZSCAN30 (11745921_a_at) / RFU CMKLR1 (11741424_a_at) / Fold change /veh CMKLR1 (11741424_a_at) / RFU LOC101060620 /// MAPK8IP1 (11723275_at) / Fold change /veh LOC101060620 /// MAPK8IP1 (11723275_at) / RFU SPTSSB (11747773_x_at) / Fold change /veh SPTSSB (11747773_x_at) / RFU PRSS12 (11739890_at) / Fold change /veh PRSS12 (11739890_at) / RFU BIN1 (11741810_x_at) / Fold change /veh BIN1 (11741810_x_at) / RFU WNT11 (11732464_a_at) / Fold change /veh WNT11 (11732464_a_at) / RFU C10orf10 (11716521_a_at) / Fold change /veh C10orf10 (11716521_a_at) / RFU C5orf56 (11738089_at) / Fold change /veh C5orf56 (11738089_at) / RFU CYB561 (11721691_x_at) / Fold change /veh CYB561 (11721691_x_at) / RFU ANKRD19P (11752326_a_at) / Fold change /veh ANKRD19P (11752326_a_at) / RFU OR2T12 /// OR2T33 /// OR2T8 (11738714_s_at) / Fold change /veh OR2T12 /// OR2T33 /// OR2T8 (11738714_s_at) / RFU VCAN (11748164_a_at) / Fold change /veh VCAN (11748164_a_at) / RFU JSRP1 (11732532_at) / Fold change /veh JSRP1 (11732532_at) / RFU KRTAP10-11 (11738290_x_at) / Fold change /veh KRTAP10-11 (11738290_x_at) / RFU MYO3A (11730013_a_at) / Fold change /veh MYO3A (11730013_a_at) / RFU EBF3 (11725865_a_at) / Fold change /veh EBF3 (11725865_a_at) / RFU CAMK2N1 (11719241_x_at) / Fold change /veh CAMK2N1 (11719241_x_at) / RFU C5orf56 (11738088_a_at) / Fold change /veh C5orf56 (11738088_a_at) / RFU OLFML3 (11715873_a_at) / Fold change /veh OLFML3 (11715873_a_at) / RFU LOC100653217 /// NTM (11731650_a_at) / Fold change /veh LOC100653217 /// NTM (11731650_a_at) / RFU MAPK11 (11762145_a_at) / Fold change /veh MAPK11 (11762145_a_at) / RFU FIZ1 (11724087_x_at) / Fold change /veh FIZ1 (11724087_x_at) / RFU OASL (11726364_x_at) / Fold change /veh OASL (11726364_x_at) / RFU SOX15 (11748057_x_at) / Fold change /veh SOX15 (11748057_x_at) / RFU CD79A (11719716_a_at) / Fold change /veh CD79A (11719716_a_at) / RFU HIST1H1D (11736915_at) / Fold change /veh HIST1H1D (11736915_at) / RFU CASKIN2 (11723855_a_at) / Fold change /veh CASKIN2 (11723855_a_at) / RFU LOC730098 (11760151_x_at) / Fold change /veh LOC730098 (11760151_x_at) / RFU OR4N2 (11742367_at) / Fold change /veh OR4N2 (11742367_at) / RFU PRRT2 (11749266_a_at) / Fold change /veh PRRT2 (11749266_a_at) / RFU SNX32 (11753110_a_at) / Fold change /veh SNX32 (11753110_a_at) / RFU CDHR5 (11726645_a_at) / Fold change /veh CDHR5 (11726645_a_at) / RFU RCAN1 (11760418_a_at) / Fold change /veh RCAN1 (11760418_a_at) / RFU FAM167A (11723789_a_at) / Fold change /veh FAM167A (11723789_a_at) / RFU FAM26E (11764081_at) / Fold change /veh FAM26E (11764081_at) / RFU ISYNA1 (11749810_s_at) / Fold change /veh ISYNA1 (11749810_s_at) / RFU ACY1 (11761880_at) / Fold change /veh ACY1 (11761880_at) / RFU 11764098_at / Fold change /veh 11764098_at / RFU SAMD14 (11745864_x_at) / Fold change /veh SAMD14 (11745864_x_at) / RFU NPB (11741838_a_at) / Fold change /veh NPB (11741838_a_at) / RFU TMPRSS6 (11731388_a_at) / Fold change /veh TMPRSS6 (11731388_a_at) / RFU KRTAP10-2 (11738614_at) / Fold change /veh KRTAP10-2 (11738614_at) / RFU ARHGAP8 /// PRR5-ARHGAP8 (11727945_x_at) / Fold change /veh ARHGAP8 /// PRR5-ARHGAP8 (11727945_x_at) / RFU KRTAP5-7 /// NADSYN1 (11734609_at) / Fold change /veh KRTAP5-7 /// NADSYN1 (11734609_at) / RFU RASL12 (11751679_a_at) / Fold change /veh RASL12 (11751679_a_at) / RFU CDKN2B (11736163_a_at) / Fold change /veh CDKN2B (11736163_a_at) / RFU PRF1 (11729649_at) / Fold change /veh PRF1 (11729649_at) / RFU, ZNF638 /// ZNF638-IT1 / Fold change vs veh, ZNF638 /// ZNF638-IT1 / RFU, PANK3 / Fold change vs veh, PANK3 / RFU, SH3YL1 / Fold change vs veh, SH3YL1 / RFU, ZEB2 / Fold change vs veh, ZEB2 / RFU, NRIP1 / Fold change vs veh, NRIP1 / RFU, PTTG1IP / Fold change vs veh, PTTG1IP / RFU, CAPN2 / Fold change vs veh, CAPN2 / RFU, MED14 / Fold change vs veh, MED14 / RFU, SNORA58 / Fold change vs veh, SNORA58 / RFU, C1orf63 / Fold change vs veh, C1orf63 / RFU, LRRFIP1 / Fold change vs veh, LRRFIP1 / RFU, NDUFAF7 / Fold change vs veh, NDUFAF7 / RFU, SLC12A2 / Fold change vs veh, SLC12A2 / RFU, IBTK / Fold change vs veh, IBTK / RFU, ESF1 / Fold change vs veh, ESF1 / Fold change vs veh, TMEM50B / RFU, TAOK1 / Fold change vs veh, TAOK1 / RFU, ACBD3 / Fold change vs veh, ACBD3 / RFU, TMA16 / Fold change vs veh, TMA16 / RFU, RWDD3 / Fold change vs veh, RWDD3 / RFU, BCAT1 / Fold change vs veh, BCAT1 / RFU, EDEM3 / Fold change vs veh, EDEM3 / RFU, TMEM33 / Fold change vs veh, TMEM33 / RFU, WDR75 / Fold change vs veh, WDR75 / RFU, AHCTF1 / Fold change vs veh, AHCTF1 / RFU, TFRC / Fold change vs veh, TFRC / RFU, ZDHHC17 / Fold change vs veh, ZDHHC17 / RFU, NOM1 / Fold change vs veh, NOM1 / RFU, ARL8B / Fold change vs veh, ARL8B / RFU, ZBTB11 / Fold change vs veh, ZBTB11 / RFU, TAMM41 / Fold change vs veh, TAMM41 / RFU, KIAA1704 /// LOC100996395 / Fold change vs veh, KIAA1704 /// LOC100996395 / RFU, ING1 / Fold change vs veh, ING1 / RFU, TRMT61B / Fold change vs veh, TRMT61B / RFU, FUBP3 / Fold change vs veh, FUBP3 / RFU, TP53 / Fold change vs veh, TP53 / RFU, TNKS2 / Fold change vs veh, TNKS2 / RFU, ZFP14 / Fold change vs veh, ZFP14 / RFU, ACTR2 / Fold change vs veh, ACTR2 / RFU, PPP3R1 / Fold change vs veh, PPP3R1 / RFU, PIK3R1 / Fold change vs veh, PIK3R1 / RFU, HNRNPA1 / Fold change vs veh, HNRNPA1 / RFU, RNF170 / Fold change vs veh, RNF170 / RFU, ZNF28 / Fold change vs veh, ZNF28 / RFU, RNGTT / Fold change vs veh, RNGTT / RFU, OGT / Fold change vs veh, OGT / RFU, BRD1 / Fold change vs veh, BRD1 / RFU, MARS / Fold change vs veh, MARS / RFU, ZNF655 / Fold change vs veh, ZNF655 / RFU, FAHD1 / Fold change vs veh, FAHD1 / RFU, BDP1 / Fold change vs veh, BDP1 / RFU, LRRCC1 / Fold change vs veh, LRRCC1 / RFU, ARID1A / Fold change vs veh, ARID1A / RFU, ZNF146 / Fold change vs veh, ZNF146 / RFU, ZNF330 / Fold change vs veh, ZNF330 / RFU, GPN3 / Fold change vs veh, GPN3 / RFU, C9orf123 / Fold change vs veh, C9orf123 / RFU, N4BP2L2 / Fold change vs veh, N4BP2L2 / RFU, ARFIP1 / Fold change vs veh, ARFIP1 / RFU, FAM179B / Fold change vs veh, FAM179B / RFU, BCL10 / Fold change vs veh, BCL10 / RFU, UHRF1BP1L / Fold change vs veh, UHRF1BP1L / RFU, BET1 / Fold change vs veh, BET1 / RFU, CNOT2 / Fold change vs veh, CNOT2 / RFU, ZNF268 / Fold change vs veh, ZNF268 / Fold change vs veh, ZNF507 / RFU, DGCR2 / Fold change vs veh, DGCR2 / RFU, WDSUB1 / Fold change vs veh, WDSUB1 / Fold change vs veh, HSP90B1 /// MIR3652 / RFU, ADSS / Fold change vs veh, ADSS / RFU, GK / Fold change vs veh, GK / RFU, ZNF148 / Fold change vs veh, ZNF148 / RFU, TAF9 / Fold change vs veh, TAF9 / RFU, SLC1A5 / Fold change vs veh, SLC1A5 / RFU, SLMO2 / Fold change vs veh, SLMO2 / RFU, ABCC4 / Fold change vs veh, ABCC4 / RFU, LOC101060439 /// RAP1B / Fold change vs veh, LOC101060439 /// RAP1B / RFU, RFX7 / Fold change vs veh, RFX7 / RFU, GTPBP10 / Fold change vs veh, GTPBP10 / RFU, CNEP1R1 / Fold change vs veh, CNEP1R1 / RFU, BIVM-ERCC5 /// ERCC5 / Fold change vs veh, BIVM-ERCC5 /// ERCC5 / RFU, ILF3 / Fold change vs veh, ILF3 / RFU 11762660_at / Fold change /veh 11762660_at / RFU VCAN (11757783_s_at) / Fold change /veh VCAN (11757783_s_at) / RFU DDX43 (11728927_at) / Fold change /veh DDX43 (11728927_at) / RFU KRT8 (11758188_x_at) / Fold change /veh KRT8 (11758188_x_at) / RFU NKD1 (11759106_at) / Fold change /veh NKD1 (11759106_at) / RFU SRD5A1 (11742802_a_at) / Fold change /veh SRD5A1 (11742802_a_at) / RFU TPSAB1 /// TPSB2 (11721975_s_at) / Fold change /veh TPSAB1 /// TPSB2 (11721975_s_at) / RFU GSTM3 (11746129_a_at) / Fold change /veh GSTM3 (11746129_a_at) / RFU IL23R (11737362_x_at) / Fold change /veh IL23R (11737362_x_at) / RFU TMEM51 (11727254_a_at) / Fold change /veh TMEM51 (11727254_a_at) / RFU PIWIL2 (11732686_x_at) / Fold change /veh PIWIL2 (11732686_x_at) / RFU ORM1 (11744905_x_at) / Fold change /veh ORM1 (11744905_x_at) / RFU CCDC152 (11743942_at) / Fold change /veh CCDC152 (11743942_at) / RFU ECM1 (11717891_a_at) / Fold change /veh ECM1 (11717891_a_at) / RFU IL23R (11748794_a_at) / Fold change /veh IL23R (11748794_a_at) / RFU TNFAIP8L3 (11732012_x_at) / Fold change /veh TNFAIP8L3 (11732012_x_at) / RFU MBOAT4 (11741988_at) / Fold change /veh MBOAT4 (11741988_at) / RFU 11764193_at / Fold change /veh 11764193_at / RFU TMEM53 (11763286_at) / Fold change /veh TMEM53 (11763286_at) / RFU MAGEB2 (11727129_at) / Fold change /veh MAGEB2 (11727129_at) / RFU TMEM200A (11744735_a_at) / Fold change /veh TMEM200A (11744735_a_at) / RFU CCDC152 (11751479_a_at) / Fold change /veh CCDC152 (11751479_a_at) / RFU FAM211A (11726209_a_at) / Fold change /veh FAM211A (11726209_a_at) / RFU RGS16 (11746705_a_at) / Fold change /veh RGS16 (11746705_a_at) / RFU VCAN (11755009_s_at) / Fold change /veh VCAN (11755009_s_at) / RFU RHOB (11743442_s_at) / Fold change /veh RHOB (11743442_s_at) / RFU RGS16 (11720943_a_at) / Fold change /veh RGS16 (11720943_a_at) / RFU RGS16 (11720944_at) / Fold change /veh RGS16 (11720944_at) / RFU, VPS4B / Fold change vs veh, VPS4B / RFU, CREB1 / Fold change vs veh, CREB1 / RFU, DNAJC13 / Fold change vs veh, DNAJC13 / RFU, GNAQ / Fold change vs veh, GNAQ / RFU, CDK5R1 / Fold change vs veh, CDK5R1 / RFU, ZRANB3 / Fold change vs veh, ZRANB3 / RFU, CUL4A / Fold change vs veh, CUL4A / RFU, CCNY / Fold change vs veh, CCNY / RFU, UFL1 / Fold change vs veh, UFL1 / RFU, COG3 / Fold change vs veh, COG3 / RFU, DIAPH2 / Fold change vs veh, DIAPH2 / RFU, SKA2 / Fold change vs veh, SKA2 / RFU, AFF3 / Fold change vs veh, AFF3 / RFU, LMF1 / Fold change vs veh, LMF1 / RFU, IPO11 / Fold change vs veh, IPO11 / RFU, DFFB / Fold change vs veh, DFFB / RFU, FOXP1 / Fold change vs veh, FOXP1 / RFU, CARD8 / Fold change vs veh, CARD8 / RFU, STRN3 / Fold change vs veh, STRN3 / RFU, ADK / Fold change vs veh, ADK / RFU, RASSF2 / Fold change vs veh, RASSF2 / RFU, WIPF1 / Fold change vs veh, WIPF1 / RFU, LARP1B / Fold change vs veh, LARP1B / RFU, RASA1 / Fold change vs veh, RASA1 / RFU, RB1 / Fold change vs veh, RB1 / RFU, PPFIA1 / Fold change vs veh, PPFIA1 / RFU, MAT2A / Fold change vs veh, MAT2A / RFU, CCT5 / Fold change vs veh, CCT5 / RFU, WDR92 / Fold change vs veh, WDR92 / RFU, CUX1 / Fold change vs veh, CUX1 / RFU, TTC7A / Fold change vs veh, TTC7A / RFU, TMEM135 / Fold change vs veh, TMEM135 / RFU, DEPTOR / Fold change vs veh, DEPTOR / RFU, CPM / Fold change vs veh, CPM / RFU, DNAJB6 / Fold change vs veh, DNAJB6 / RFU, CACNA2D3 / Fold change vs veh, CACNA2D3 / RFU, DTX4 / Fold change vs veh, DTX4 / RFU, TFCP2 / Fold change vs veh, TFCP2 / RFU, GMCL1 /// GMCL1P1 / Fold change vs veh, GMCL1 /// GMCL1P1 / RFU, AEBP2 / Fold change vs veh, AEBP2 / RFU, SNHG1 /// SNORD22 /// SNORD25 /// SNORD26 /// SNORD27 /// SNORD28 /// SNORD29 /// SNORD31 / Fold change vs veh, SNHG1 /// SNORD22 /// SNORD25 /// SNORD26 /// SNORD27 /// SNORD28 /// SNORD29 /// SNORD31 / Fold change (Aza/veh), C12orf56 (ProbeSet 11735607_a_at) / Fold change (ACY-1035/veh), C12orf56 (ProbeSet 11735607_a_at) / Fold change (Aza/veh), FGFR1OP (ProbeSet 11751329_s_at) / Fold change (ACY-1035/veh), FGFR1OP (ProbeSet 11751329_s_at) / Fold change (Aza/veh), VPS36 (ProbeSet 11739960_a_at) / Fold change (ACY-1035/veh), VPS36 (ProbeSet 11739960_a_at) / RFU SYPL1 (11715823_x_at) / Fold change /veh SYPL1 (11715823_x_at) / RFU IGFBP7 (11715501_s_at) / Fold change /veh IGFBP7 (11715501_s_at) / RFU REEP3 (11722064_at) / Fold change /veh REEP3 (11722064_at) / RFU IGLL1 (11728026_x_at) / Fold change /veh IGLL1 (11728026_x_at): dose or concentration left out as unconfirmed
Conditions: ProbeSet 11759094_a_at; LIST D

Structure (SMILES): Nc1ccc(-c2cccs2)cc1NC(=O)c1ccc2c(c1)cc(C1CC1)n2CCN1CCOCC1 [ACY-1035]
- RFU, GNAQ: 492.28 RFU
